Tests used:
APOL1 G2 [1] = target: T1, APOL1 G2 (Homo sapiens, UniProt O14791, DEL388-389); assay: APOL1 G2 FLIPR calcium influx assay (HEK T-REx/GCaMP6f/APOL1 G2 K6.3 cells); assay type: cell-based; conditions: HEK293 clone expressing GCaMP6f, doxycycline-induced APOL1 G2; prevention of calcium influx; geometric mean of at least 2 assay runs
T1 construct: expressed in transfected cells; host or cells: HEK293/T-REx APOL1 G2 clone #2, doxycycline-inducible
T1 sequence (O14791 with tags, fused parts or gaps DEL388-389): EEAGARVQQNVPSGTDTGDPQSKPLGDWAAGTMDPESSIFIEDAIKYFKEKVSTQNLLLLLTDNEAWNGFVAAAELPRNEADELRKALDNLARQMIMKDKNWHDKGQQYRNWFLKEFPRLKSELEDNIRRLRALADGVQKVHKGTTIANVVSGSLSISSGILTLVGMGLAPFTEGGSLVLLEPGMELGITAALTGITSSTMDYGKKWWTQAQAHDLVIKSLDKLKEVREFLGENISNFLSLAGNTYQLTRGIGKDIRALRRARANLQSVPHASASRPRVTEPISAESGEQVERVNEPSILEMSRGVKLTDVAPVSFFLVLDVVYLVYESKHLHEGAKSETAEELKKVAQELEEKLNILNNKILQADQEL
Experimental: A HEK293 clonal cell line was generated to stably express GCaMP6f, a genetically encoded calcium indicator, and inducibly express APOL1 G2 (HEK T-REx/GCaMP6f/APOL1 G2 K6.3). Cells were maintained in the following standard complete medium: DMEM with 4.5 g/L glucose and sodium pyruvate (BioWhittaker, Lonza, BE12-614F), supplemented with 10% FBS Performance Plus (Gibco, 16000044), 1% penicillin-streptomycin (BioWhittaker, DE17-602E), 2 mM ultraglutamine-1 (BioWhittaker cat. BE 17-605/U1), 50 μg/mL Zeocin (InvivoGen, ant-zn), 2.5 μg/mL Blasticidin (InvivoGen, ant-bl-5), and 25 μg/mL Hygromycin (InvivoGen, ant-hg). Standard propagation conditions consisted of plating 9×10^6, 4×10^6, 2×10^6 cells in a T225 flasks to be processed after 2, 3, or 4 days, respectively.
A source plate was generated containing 20 serially diluted compounds in DMSO (duplicate 8-point dose response). Next, 0.8 μL of compounds were transferred from the source plate to a destination plate prefilled with 79.2 μL of Ca^2+ free Tyrode's buffer (130 mM NaCl, 5 mM KCl, 1 mM MgCl2, 5 mM NaHCO3, 20 mM HEPES at pH 7.4). The destination plate was placed on a plate shaker (5 seconds at 2000 rpm) to mix. […] All transfer and mixing steps were conducted with an CyBi®-Well dispenser.
Cells were split by gently washing with DPBS (Euroclone, ECB4004L), followed by a 5-minute incubation (humidified, 37° C. with 5% CO2) with trypsin-EDTA solution (Euroclone, ECB3052D). Detached cells were diluted with standard complete medium without selective agents, counted, and plated in a 384 MTP microplate (GR4332CPL, Twin Helix) (10,000 cells/well in 25 μl/well) using a MATRIX WellMate dispenser. Plates were placed into a humidified incubator (37° C. with 5% CO2) overnight. The following day, 20 μL of doxycycline (Sigma, D9891) at 20 ng/mL in standard complete medium was added to cells with a CyBi®Drop dispenser to induce APOL1 G2 expression. After a 6-hour incubation (humidified, 37° C. with 5% CO2), cells were washed 3 times with Ca^2+ free Tyrode's Buffer (130 mM NaCl, 5 mM KCl, 1 mM MgCl2, 5 mM NaHCO3, 20 mM HEPES at pH 7.4) using a BIOTEK Microplate washer, such that 10 μL of buffer remained in each well after the final wash. Assay plates were then stored at room temperature for 10 minutes. Next, 10 μL of diluted compounds were transferred to the assay plate from the 2× compound plate using a CyBi®-Well dispenser. Compound incubation was then carried out at room temperature for 10 minutes. The assay plate was transferred to the […] and 20 μL of 10 mM Ca^2+ (final concentration=5 mM) Tyrode's buffer was injected.
Table B1 below summarizes the data from this experiment. Unless otherwise specified, AC50 and values are reported as the geometric mean of at least 2 assay runs on separate days. Each run represents the average of a technical replicate, where each compound was assayed twice in the same plate. A superscript t symbol indicates a value from the average of a technical replicate from a single assay run, where each compound was assayed twice in the same plate.
The AC50 values in Table B1 below reflect the compound's ability to prevent calcium influx by inhibiting APOL1. […] Compounds in Table B1 are referred to by the corresponding Compound Number in Table 1, which is also referred to in the synthetic examples. When one or more of the numbered compounds are identified by stereochemistry (for example, (R)- or (S)-), the specific stereoisomer for which data is provided in Table B1 may be identified by the elution order of such compound as described in the synthetic examples. To illustrate, Compound 2 is the first-eluting enantiomer of step 4 of Example 1 and Compound 3 is the second-eluting enantiomer of step 4 of Example 1. Further, by way of illustration, Compound 27 is the first-eluting enantiomeric mixture in step 4 of Example 7 and Compound 28 is the second-eluting enantiomeric mixture in step 4 of Example 7. […]

APOL1 G2 [2] = target: T1, APOL1 G2; assay: APOL1 G2 HEK293 rescue of cell death caused by overexpression of APOL1 (CellTiter-Glo); assay type: cell-based; conditions: HEK293/T-REx APOL1 G2 clone #2, doxycycline induction, 17 hours, CellTiter-Glo luminescence; reversal of cell death; geometric mean of at least 2 assay runs
Experimental: A HEK293 clonal cell line overexpressing APOL1 G2 (HEK293/T-REx APOL1 G2/clone #2) was maintained in 1×DMEM-GlutaMax (Gibco, 10569-010) media with 10% tetracycline-free FBS (Takara Bio USA, 631101), 5 μg/mL Blasticidin (Gibco, A1113903), and 100 μg/mL Zeocin (Invitrogen, R25001) in T75 flasks. In preparation for the assay, this media was aspirated and 2 mL of prewarmed TrypLE Express (Gibco, 12605-010) was added to a flask to detach cells. The flask was then incubated (humidified, 37° C. with 5% CO2) for 3-5 minutes. Afterwards, 8 mL of prewarmed cell assay media (1×DMEM-GlutaMax media with 10% tetracycline-free FBS) was added to the trypsinized cells. The suspension was gently mixed, and cells were counted using a Countess Cell Counting Chamber (Invitrogen). The suspension was diluted using cell assay media to generate a working stock solution (166,667 cells/mL). Using a MultiDrop Combi (Thermo Electron Corp), 30 μL (final cell density=5,000 cells/well) of the working stock solution was dispensed into each well of white 384-well assay ready plates (Nunc™, 164610) containing 6 ng/mL doxycycline, to induce APOL1 expression, and compound. All compounds were plated in a duplicate 8-point dilution series that consisted of 3-fold stepwise dilutions (0.5% DMSO final). Assay plates were incubated (humidified, 37° C. with 5% CO2) for 17 hours. After the incubation, the plates were equilibrated at room temperature for 1 hour. Next, 15 μl of CellTiter-Glo® reagent (Promega, G7570) was added to each well using a MultiDrop Combi. Plates were placed on an orbital shaker (500 rpm) for 5 minutes to induce cell lysis and then incubated at room temperature for 10 minutes. Luminescence was measured on an Envision plate reader. Collaborative Drug Discovery software was utilized for graphing data. Plots were generated using a four parameter logistic curve fit.
Table B2 below provides the results from this experiment. Unless otherwise specified, EC50 values are reported as the geometric mean of at least 2 assay runs on separate days. Each run represents the average of a technical replicate, where each compound was assayed twice in the same plate. A superscript t symbol indicates a value from the average of a technical replicate from a single assay run, where each compound was assayed twice in the same plate. Compounds in Table B2 are referred to by the corresponding Compound Number in Table 1, which is also referred to in the synthetic examples. When one or more of the numbered compounds are identified by stereochemistry (for example, (R)- or (S)-), the specific stereoisomer for which data is provided in Table B2 may be identified by the elution order of such compound as described in the synthetic examples. To illustrate, Compound 2 is the first-eluting enantiomer of step 4 of Example 1 and Compound 3 is the second-eluting enantiomer of step 4 of Example 1. Further, by way of illustration, Compound 27 is the first-eluting enantiomeric mixture in step 4 of Example 7 and Compound 28 is the second-eluting enantiomeric mixture in step 4 of Example 7. Then, Compound 27 is separated into Compound 29 (the first-eluting enantiomer) and Compound 30 (the second-eluting enantiomer) in Example 8, and Compound 28 is separated into Compound 31 (the first-eluting enantiomer) and Compound 32 (the second-eluting enantiomer) in Example 8. Absolute stereochemistry of such compounds may be identified by methods known in the art.
Rescue EC50 values reported in Table B2 below represent the half-maximal effective concentration for reversal of cell death caused by overexpression of APOL1.

AC50 (APOL1 G2 [1]) [nM]	SMILES	EC50 (APOL1 G2 [2]) [nM]
1030	C[C@@H]1C[C@H](COc2ccc(S(C)(=O)=O)cc2)CN1C1Cc2ccc(Cl)cc2C1 (single isomer, unassigned) [Compound 2]	693
721	C[C@@H]1C[C@H](COc2ccc(S(C)(=O)=O)cc2)CN1C1Cc2ccc(Cl)cc2C1 (single isomer, unassigned) [Compound 3, (2R,4S)-1-[(2R or 2S)-5-chloro-2,3-dihydro-1H-inden-2-yl]-4-[(4-methanesulfonylphenoxy)methyl]-2-methylpyrrolidine]	398
1140	C[C@@H]1C[C@H](COc2ccc(S(C)(=O)=O)cc2)CN1C1Cc2ccc(Cl)cc2C1 (single isomer, unassigned) [Compound 4, (2R,4S)-1-[(2S or 2R)-5-chloro-2,3-dihydro-1H-inden-2-yl]-4-[(4-methanesulfonylphenoxy)methyl]-2-methylpyrrolidine]	2350
488	C[C@@H]1C[C@H](COc2ccc(S(C)(=O)=O)cc2)CN1C1CCc2ccc(Cl)cc2C1 (single isomer, unassigned) [Compound 5, (2R,4S)-1-[(2S or 2R)-7-chloro-1,2,3,4-tetrahydronaphthalen-2-yl]-4-[(4-methanesulfonylphenoxy)methyl]-2-methylpyrrolidine]	47.6
	C[C@@H]1C[C@H](COc2ccc(S(=O)(=O)C3CNC3)cc2)CN1C1CCc2ccc(C#N)cc2C1 (single isomer, unassigned) [Compound 27]	145
	C[C@@H]1C[C@H](COc2ccc(S(=O)(=O)C3CNC3)cc2)CN1C1CCc2ccc(C#N)cc2C1 (single isomer, unassigned) [Compound 28]	401
	C[C@@H]1C[C@H](COc2ccc(S(=O)(=O)C3CNC3)cc2)CN1C1CCc2ccc(C#N)cc2C1 (single isomer, unassigned) [Compound 29]	58.4
	CN=S(C)(=O)c1ccc(OC[C@H]2C[C@@H](C)N(C3CCc4ccc(C#N)cc4C3)C2)cc1 (single isomer, unassigned) [Compound 37, (7R or 7S)-7-[(2R,4S)-2-methyl-4-({4-[methyl(methylimino)oxo-λ^6-sulfanyl]phenoxy}methyl)pyrrolidin-1-yl]-5,6,7,8-tetrahydronaphthalene-2-carbonitrile]	769
	C[C@@H]1CN(CC(O)c2cccc(Cl)c2)C[C@H]1COc1ccc(S(C)(=O)=O)cc1 (single isomer, unassigned) [Compound 91, (1R) or (1S)-1-(3-chlorophenyl)-2-[trans-3-[(4-methanesulfonylphenoxy)methyl]-4-methylpyrrolidin-1-yl]ethan-1-ol]	1610
	COC(=O)CCCS(=O)(=O)c1ccc(OC[C@@H]2CN(CCc3cccc(Cl)c3)C[C@H]2C)cc1 [Compound 79, methyl 4-(4-{[(3S,4S)-1-[2-(3-chlorophenyl)ethyl]-4-methylpyrrolidin-3-yl]methoxy}benzenesulfonyl)butanoate]	334
	C[C@@H]1CN(CCc2cccc(C#N)c2)C[C@H]1COc1cc(F)c(S(C)(=O)=O)c(F)c1 [Compound 81, 3-{2-[(3S,4S)-3-[(3,5-difluoro-4-methanesulfonylphenoxy)methyl]-4-methylpyrrolidin-1-yl]ethyl}benzonitrile]	144
	Cc1cc(OC[C@@H]2CN(CCc3cccc(C#N)c3)C[C@H]2C)cnc1S(C)(=O)=O [Compound 87, 3-{2-[(3S,4S)-3-{[(6-methanesulfonyl-5-methylpyridin-3-yl)oxy]methyl}-4-methylpyrrolidin-1-yl]ethyl}benzonitrile]	185
	C[C@H]1CN(CCc2cccc(Cl)c2)C[C@@H]1COc1ccc(S(C)(=O)=O)cc1 [Compound 92, (3R,4R)-1-[2-(3-chlorophenyl)ethyl]-3-[(4-methanesulfonylphenoxy)methyl]-4-methylpyrrolidine]	2070
